According to patent US7511159B2, “Azetidine ring compounds and drugs comprising the same” (Ono Pharmaceutical Co., Ltd., priority 2003, dated 2009):

Target: T1, human EDG-5 (Homo sapiens, UniProt O95136)
T1 construct: expressed in transfected cells; host or cells: Chinese hamster ovary (CHO) cells
Test: Evaluation of antagonistic activity for EDG-5 by monitoring the concentration change of intracellular calcium ion
Format: cell-based
Conditions: CHO cells overexpressing human EDG-5 gene, S1P 100 nM stimulation, Fura2, read-out: IC50 value (concentration showing an inhibition rate of 50%)
Procedure: Evaluation of Antagonistic Activity for EDG-5 by Monitoring the Concentration Change of Intracellular Calcium Ion
Chinese hamster ovary (CHO) cells in which human EDG-5 gene was overexpressed were cultured in Ham's F12 medium (GIBCO BRL) containing 10% FBS (fetal bovine serum), penicillin/streptomycin. and blasticidin (5 μg/mL). Thus cultured cells were incubated in a Fura2 (5 μM)-AM solution [Ham's F12 medium containing FBS (10%), HEPES buffer (20 mM, pH7.4), and probenecid (2.5 mM)] at 37° C. for 60 minutes. Then the cells were washed once with a Hanks' solution (2.5 mM) containing probenecid and immersed into the Hanks' solution. A plate was set on a fluorescent drug screening system, and the concentration of intracellular calcium ion was measured for 30 seconds with no stimulation. A solution of a compound (dimethyl sulfoxide (DMSO) solution of 1 nM to 10 μM at the final concentration) to be tested was added. After lapse of 5 minutes, S1P (final concentration: 100 nM) was added, the concentration of intracellular calcium ion before and after the addition of SiP was measured every 3 seconds (excitation wave length: 340 nm and 380 nm; fluorescent wave length: 500 nm). […]

T1 sequence (O95136 whole entry): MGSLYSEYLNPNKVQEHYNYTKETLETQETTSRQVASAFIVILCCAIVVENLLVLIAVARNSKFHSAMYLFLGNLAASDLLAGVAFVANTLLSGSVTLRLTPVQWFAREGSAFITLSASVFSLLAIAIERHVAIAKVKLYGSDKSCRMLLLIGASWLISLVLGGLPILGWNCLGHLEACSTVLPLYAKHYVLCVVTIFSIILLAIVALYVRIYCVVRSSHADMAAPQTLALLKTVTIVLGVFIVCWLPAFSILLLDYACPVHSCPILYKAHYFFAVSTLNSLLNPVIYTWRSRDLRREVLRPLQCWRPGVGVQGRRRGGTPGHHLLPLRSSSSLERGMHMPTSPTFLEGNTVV

- IC50: 950 nM
SMILES: CCN(c1ccccc1)C1CN(C(=O)Nc2cc(C(F)(F)F)cc(C(F)(F)F)c2)C1 [Example 3(18), N-[3,5-Bis(trifluoromethyl)phenyl]-3-[ethyl(phenyl)amino]azetidine-1-carboxamide]
